# Molecular target: T1, human neutrophil elastase (HNE) (Homo sapiens, UniProt P08246)
# T1 construct: gene ELANE; Recombinant HNE protein (molecular mass, 25 kDa)
# T1 sequence (P08246 30-247): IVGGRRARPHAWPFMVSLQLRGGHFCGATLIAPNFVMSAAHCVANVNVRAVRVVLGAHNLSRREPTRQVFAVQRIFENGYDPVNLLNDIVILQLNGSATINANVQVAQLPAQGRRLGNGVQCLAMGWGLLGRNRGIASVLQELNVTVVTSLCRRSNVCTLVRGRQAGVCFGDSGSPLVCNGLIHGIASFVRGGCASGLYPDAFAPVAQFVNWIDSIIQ
# Assay: SPR (Biacore […], HNE immobilized on CM5 chip, […] Langmuir fit); also enzyme inhibition with IC50 […]
# Type: binding
compound,measurement,value
O=C(OC1Cc2c(O)cc(O)cc2OC1c1cc(O)c(O)c(O)c1)c1cc(O)c(O)c(O)c1 (stereo not shown) [EGCG],Kd,41.4 µM

# Source: article PMC4503950, “EGCG reverses human neutrophil elastase-induced migration in A549 cells by directly binding to HNE and by regulating α1-AT” (Scientific Reports, 2015)
